Drawing on US20080207573A1, “COMPOUNDS FOR TREATING VIRAL INFECTIONS” (priority 2006, published 2008), this text covers EC50 for 33 compounds.

The test system of this assay is HIV-1 laboratory strain, NL4-3. The assay can be described thus: MT-4 Cytoprotection Assay (protection from HIV-induced cytopathic effect, WST-1 readout). The assay is classed as cell-based. The settings on record: Human immunodeficiency virus 1, NL43; list of representative compounds; read-out: EC50 of less than about 100 nm (representative compounds). Here is the method: MT-4 Cytoprotection Assay
The HTLV-1 transformed T cell line, MT-4, is highly susceptible to HIV-1 infection. Anti-HIV-1 agents were evaluated in this target cell line by protection from the HIV-induced cytopathic effect. In this assay, viability of both HIV-1 and mock-infected cells was assessed in a […] assay that monitors the ability of metabolically-active cells to reduce the tetrazolium salt WST-1. Cytoprotection by antiviral compounds is indicated by the positive readout of increased WST-1 cleavage.
Briefly, exponentially growing MT-4 cells were mock-infected or batch-infected with the HIV-1 laboratory strain, NL4-3, at a multiplicity of infection of 0.0005. Following a two hour infection, the cells were washed to remove unbound virus and plated in the presence of increasing concentrations of compound. After four days incubation, cytoprotection in the infected cells and compound toxicity in mock-infected cells were analyzed using the WST-1 assay.
(In general: Protection from cytopathic effect is a common read-out in antiviral testing.)
On to `C=C(C)[C@@H]1CC[C@]2(C(=O)NCc3ccc(OC)cc3)CC[C@]3(C)[C@H](CC[C@@H]4[C@@]5(C)CC[C@H](OC(=O)CC(C)(C)C(=O)O)C(C)(C)[C@@H]5CC[C@]43C)[C@@H]12` [Compound 69], for which the concentration for a half-maximal effect (EC50) is below 100 nM.
For `C=C(C)[C@@H]1CC[C@]2(C(=O)NCc3ccco3)CC[C@]3(C)[C@H](CC[C@@H]4[C@@]5(C)CC[C@H](OC(=O)CC(C)(C)C(=O)O)C(C)(C)[C@@H]5CC[C@]43C)[C@@H]12` [Compound 74], the EC50 is below 100 nM.
On to `C=C(C)[C@@H]1CC[C@]2(C(=O)NCc3ccncc3)CC[C@]3(C)[C@H](CC[C@@H]4[C@@]5(C)CC[C@H](OC(=O)CC(C)(C)C(=O)O)C(C)(C)[C@@H]5CC[C@]43C)[C@@H]12` [Compound 75], for which the EC50 is below 100 nM.
With `C=C(C)[C@@H]1CC[C@]2(C(=O)Nc3ccc(OC)cc3)CC[C@]3(C)[C@H](CC[C@@H]4[C@@]5(C)CC[C@H](OC(=O)CC(C)(C)C(=O)O)C(C)(C)[C@@H]5CC[C@]43C)[C@@H]12` [Compound 77], the EC50 was below 100 nM.
The result for `C=C(C)[C@@H]1CC[C@]2(C(=O)NCc3ccccc3OC)CC[C@]3(C)[C@H](CC[C@@H]4[C@@]5(C)CC[C@H](OC(=O)CC(C)(C)C(=O)O)C(C)(C)[C@@H]5CC[C@]43C)[C@@H]12` [Compound 78] reads below 100 nM; that for `C=C(C)[C@@H]1CC[C@]2(C(=O)NCc3cccc(OC)c3)CC[C@]3(C)[C@H](CC[C@@H]4[C@@]5(C)CC[C@H](OC(=O)CC(C)(C)C(=O)O)C(C)(C)[C@@H]5CC[C@]43C)[C@@H]12` [Compound 79], below 100 nM.
The result for `C=C(C)[C@@H]1CC[C@]2(C(=O)NCc3ccc(Cl)cc3)CC[C@]3(C)[C@H](CC[C@@H]4[C@@]5(C)CC[C@H](OC(=O)CC(C)(C)C(=O)O)C(C)(C)[C@@H]5CC[C@]43C)[C@@H]12` [Compound 80] reads below 100 nM; that for `C=C(C)[C@@H]1CC[C@]2(C(=O)N[C@H](C)c3ccc(OC)cc3)CC[C@]3(C)[C@H](CC[C@@H]4[C@@]5(C)CC[C@H](OC(=O)CC(C)(C)C(=O)O)C(C)(C)[C@@H]5CC[C@]43C)[C@@H]12` [Compound 81], below 100 nM.
Take `C=C(C)[C@@H]1CC[C@]2(C(=O)NCc3ccc4c(c3)OCO4)CC[C@]3(C)[C@H](CC[C@@H]4[C@@]5(C)CC[C@H](OC(=O)CC(C)(C)C(=O)O)C(C)(C)[C@@H]5CC[C@]43C)[C@@H]12` [Compound 82]: the half-maximal effective concentration (EC50) is below 100 nM.
As to `C=C(C)[C@@H]1CC[C@]2(C(=O)NCc3ccc4c(c3)OCCO4)CC[C@]3(C)[C@H](CC[C@@H]4[C@@]5(C)CC[C@H](OC(=O)CC(C)(C)C(=O)O)C(C)(C)[C@@H]5CC[C@]43C)[C@@H]12` [Compound 84], the concentration giving a half-maximal response (EC50) was below 100 nM.
The result for `C=C(C)[C@@H]1CC[C@]2(C(=O)NCc3ccc4occc4c3)CC[C@]3(C)[C@H](CC[C@@H]4[C@@]5(C)CC[C@H](OC(=O)CC(C)(C)C(=O)O)C(C)(C)[C@@H]5CC[C@]43C)[C@@H]12` [Compound 87] reads below 100 nM; that for `C=C(C)[C@@H]1CC[C@]2(C(=O)NCCc3cccc(OC)c3)CC[C@]3(C)[C@H](CC[C@@H]4[C@@]5(C)CC[C@H](OC(=O)CC(C)(C)C(=O)O)C(C)(C)[C@@H]5CC[C@]43C)[C@@H]12` [Compound 88], below 100 nM; that for `C=C(C)[C@@H]1CC[C@]2(C(=O)NCCc3ccncc3)CC[C@]3(C)[C@H](CC[C@@H]4[C@@]5(C)CC[C@H](OC(=O)CC(C)(C)C(=O)O)C(C)(C)[C@@H]5CC[C@]43C)[C@@H]12` [Compound 91], below 100 nM.
Turning to `C=C(C)[C@@H]1CC[C@]2(C(=O)NCCc3ccccn3)CC[C@]3(C)[C@H](CC[C@@H]4[C@@]5(C)CC[C@H](OC(=O)CC(C)(C)C(=O)O)C(C)(C)[C@@H]5CC[C@]43C)[C@@H]12` [Compound 92], the EC50 is below 100 nM.
With `C=C(C)[C@@H]1CC[C@]2(C(=O)NCCc3cccnc3)CC[C@]3(C)[C@H](CC[C@@H]4[C@@]5(C)CC[C@H](OC(=O)CC(C)(C)C(=O)O)C(C)(C)[C@@H]5CC[C@]43C)[C@@H]12` [Compound 93], the EC50 is below 100 nM.
The result for `C=C(C)[C@@H]1CC[C@]2(C(=O)NCc3cccc4ccccc34)CC[C@]3(C)[C@H](CC[C@@H]4[C@@]5(C)CC[C@H](OC(=O)CC(C)(C)C(=O)O)C(C)(C)[C@@H]5CC[C@]43C)[C@@H]12` [Compound 94] reads below 100 nM; that for `C=C(C)[C@@H]1CC[C@]2(C(=O)NCc3ccoc3)CC[C@]3(C)[C@H](CC[C@@H]4[C@@]5(C)CC[C@H](OC(=O)CC(C)(C)C(=O)O)C(C)(C)[C@@H]5CC[C@]43C)[C@@H]12` [Compound 95], below 100 nM.
With `C=C(C)[C@@H]1CC[C@]2(C(=O)NCCOc3ccc(OC)cc3)CC[C@]3(C)[C@H](CC[C@@H]4[C@@]5(C)CC[C@H](OC(=O)CC(C)(C)C(=O)O)C(C)(C)[C@@H]5CC[C@]43C)[C@@H]12` [Compound 97], the half-maximal effective concentration (EC50) is below 100 nM.
`C=C(C)[C@@H]1CC[C@]2(C(=O)NCc3ccc(N(C)C)cc3)CC[C@]3(C)[C@H](CC[C@@H]4[C@@]5(C)CC[C@H](OC(=O)CC(C)(C)C(=O)O)C(C)(C)[C@@H]5CC[C@]43C)[C@@H]12` [Compound 99]: the half-maximal effective concentration (EC50) is below 100 nM.
The result for `C=C(C)[C@@H]1CC[C@]2(C(=O)NCCc3ccc(C(=O)O)cc3)CC[C@]3(C)[C@H](CC[C@@H]4[C@@]5(C)CC[C@H](OC(=O)CC(C)(C)C(=O)O)C(C)(C)[C@@H]5CC[C@]43C)[C@@H]12` [Compound 100] reads below 100 nM; that for `C=C(C)[C@@H]1CC[C@]2(C(=O)NCc3c(C)coc3C(F)(F)F)CC[C@]3(C)[C@H](CC[C@@H]4[C@@]5(C)CC[C@H](OC(=O)CC(C)(C)C(=O)O)C(C)(C)[C@@H]5CC[C@]43C)[C@@H]12` [Compound 101], below 100 nM; that for `C=C(C)[C@@H]1CC[C@]2(C(=O)NCCCc3ccc(OC)c(OC)c3)CC[C@]3(C)[C@H](CC[C@@H]4[C@@]5(C)CC[C@H](OC(=O)CC(C)(C)C(=O)O)C(C)(C)[C@@H]5CC[C@]43C)[C@@H]12` [Compound 102], below 100 nM.
For `C=C(C)[C@@H]1CC[C@]2(C(=O)NCc3cc(OC)c(OC)c(OC)c3)CC[C@]3(C)[C@H](CC[C@@H]4[C@@]5(C)CC[C@H](OC(=O)CC(C)(C)C(=O)O)C(C)(C)[C@@H]5CC[C@]43C)[C@@H]12` [Compound 103] the value was below 100 nM; for `C=C(C)[C@@H]1CC[C@]2(C(=O)NCCCc3ccc(OC)cc3)CC[C@]3(C)[C@H](CC[C@@H]4[C@@]5(C)CC[C@H](OC(=O)CC(C)(C)C(=O)O)C(C)(C)[C@@H]5CC[C@]43C)[C@@H]12` [Compound 104], below 100 nM.
The result for `C=C(C)[C@@H]1CC[C@]2(C(=O)NC(C)c3ccccn3)CC[C@]3(C)[C@H](CC[C@@H]4[C@@]5(C)CC[C@H](OC(=O)CC(C)(C)C(=O)O)C(C)(C)[C@@H]5CC[C@]43C)[C@@H]12` (stereo partly drawn) [Compound 105] reads below 100 nM; that for `C=C(C)[C@@H]1CC[C@]2(C(=O)NCc3nc4ccccc4s3)CC[C@]3(C)[C@H](CC[C@@H]4[C@@]5(C)CC[C@H](OC(=O)CC(C)(C)C(=O)O)C(C)(C)[C@@H]5CC[C@]43C)[C@@H]12` [Compound 106], below 100 nM.
Take `C=C(C)[C@@H]1CC[C@]2(C(=O)NCc3cccc(C)n3)CC[C@]3(C)[C@H](CC[C@@H]4[C@@]5(C)CC[C@H](OC(=O)CC(C)(C)C(=O)O)C(C)(C)[C@@H]5CC[C@]43C)[C@@H]12` [Compound 108]: the 50% effective concentration (EC50) was below 100 nM.
With `C=C(C)[C@@H]1CC[C@]2(C(=O)NCc3nc4ccccc4n3C)CC[C@]3(C)[C@H](CC[C@@H]4[C@@]5(C)CC[C@H](OC(=O)CC(C)(C)C(=O)O)C(C)(C)[C@@H]5CC[C@]43C)[C@@H]12` [Compound 109], the half-maximal effective concentration (EC50) is below 100 nM.
Turning to `C=C(C)[C@@H]1CC[C@]2(C(=O)NCc3nc4ccccc4[nH]3)CC[C@]3(C)[C@H](CC[C@@H]4[C@@]5(C)CC[C@H](OC(=O)CC(C)(C)C(=O)O)C(C)(C)[C@@H]5CC[C@]43C)[C@@H]12` [Compound 110], the EC50 was below 100 nM.
For `C=C(C)[C@@H]1CC[C@]2(C(=O)NCc3ccc4ccccc4n3)CC[C@]3(C)[C@H](CC[C@@H]4[C@@]5(C)CC[C@H](OC(=O)CC(C)(C)C(=O)O)C(C)(C)[C@@H]5CC[C@]43C)[C@@H]12` [Compound 111], the concentration for a half-maximal effect (EC50) was below 100 nM.
The result for `C=C(C)[C@@H]1CC[C@]2(C(=O)NCc3cc(C)ccn3)CC[C@]3(C)[C@H](CC[C@@H]4[C@@]5(C)CC[C@H](OC(=O)CC(C)(C)C(=O)O)C(C)(C)[C@@H]5CC[C@]43C)[C@@H]12` [Compound 112] reads below 100 nM; that for `C=C(C)[C@@H]1CC[C@]2(C(=O)NCc3ncccc3C)CC[C@]3(C)[C@H](CC[C@@H]4[C@@]5(C)CC[C@H](OC(=O)CC(C)(C)C(=O)O)C(C)(C)[C@@H]5CC[C@]43C)[C@@H]12` [Compound 113], below 100 nM; that for `C=C(C)[C@@H]1CC[C@]2(C(=O)NCc3ccc(Cl)cn3)CC[C@]3(C)[C@H](CC[C@@H]4[C@@]5(C)CC[C@H](OC(=O)CC(C)(C)C(=O)O)C(C)(C)[C@@H]5CC[C@]43C)[C@@H]12` [Compound 114], below 100 nM.

The term EC50 denotes the concentration that produces a half-maximal response.
